One test has as its system S. aureus strain 305. As to the kind of experiment: MIC determination on S. aureus strain 305. The settings on record: Staphylococcus aureus. Format: cell-based. The protocol: (§1) A classical microdilution broth method for determination of the Minimal Inhibitory Concentration (MIC) was used (Jones et al. 1985. In Manual of Clinical Microbiology, Balows et al. (Eds.), American Society for Microbiology, Washington D.C., pages 972-977). Briefly, logarithmic-phase bacteria were cultivated in tryptic soy broth and adjusted in broth to a concentration of 1×10^6 CFU/ml. Sterile microtiter plates containing 100 μl of either LysK or lysostaphin diluted in TSB are inoculated with 100 μl of the bacterial suspension to yield 5×10^5 CFU/ml. The plate is incubated at 37° C. for 20 h, at which point the plate is analyzed for clear vs. turbid wells. Each MIC assay represents at least two identical determinations per experiment.

The subject of a further test is MRSA USA300. As to the kind of experiment: Modified checkerboard synergy assay. It is filed as cell-based, Staphylococcus aureus. The protocol:
Modified checkerboard assay experiments were performed according to Graham and Coote, supra. S. aureus 305 or MRSA USA300 cells at 1×10^6 CFU/ml were prepared as for the MIC assay, and added to wells containing varying concentrations of both LysK and lysostaphin diluted in TSB. The amount of buffer in each well was adjusted to maintain the same final concentration of storage buffer (5%) and corrected with 2×TSB to maintain 1×TSB in all wells. The plate was incubated at 37° C. for 20 h, and then analyzed for clear vs. turbid wells. The Fractional Inhibitory Concentration (FIC) is calculated as the MIC of the antimicrobial in combination divided by the MIC of the antimicrobial acting alone.
To determine if these proteins could act synergistically, both LysK and lysostaphin were tested in a checkerboard assay with various concentrations of each to determine the minimal concentration of each in combination, that could inhibit growth of the MRSA USA300 (FIG. 6). The last row and column on the 96 well microtiter plate replicate the MIC determinations for lysostaphin and LysK, respectively, with nearly identical results obtained for the MIC in this assay, as in FIG. 5. […] It is apparent that the inhibition of growth when the two were added simultaneously was greater than the expected additive effect of each alone. The ΣFIC was 0.45+/−0.07 (three independent experiments), indicating strong synergistic activity (Hall et al., supra), including one assay with S. aureus 305 (data not shown).

For another test, the system named is MRSA strain USA300. The test can be described thus: Microdilution broth MIC determination. It is filed as cell-based, Staphylococcus aureus. The following applies: MRSA USA300, TSB, 37° C., 20 h. The protocol: as §1
MIC determinations for MRSA strain USA300 by lysostaphin and C-His-LysK, were performed in a 96 well microtiter plate. (FIG. 5).

We go through two compounds from patent US8568714B2, “Lys K endolysin is synergistic with lysostaphin against MRSA” (priority 2008, dated 2013).

“And” between values parts separate entries of the source, which are not always exact repeats. Equal entries are not always repeated. Where two headings read alike, the source gives them in different places.

On to `CC1(C)S[C@@H]2[C@H](NC(=O)[C@H](N)c3ccccc3)C(=O)N2[C@H]1C(=O)O` [Ampicillin], for which the MIC with S. aureus strain 305 (read-out: MIC) was roughly 0.4 µg/mL; in the test with S. aureus strain 305 (translated from μg/ml, read-out: MIC on a molar basis) it was roughly 1 µM.
On to “lysostaphin: recombinant non-tagged mature 246 amino acid anti-staphylococcal bacteriocin of S. simulans, Sigma-Aldrich L0761”, for which the results for the “concentration of each in combination that inhibits growth” value in the test with MRSA USA300 (cleared well: lysostaphin 0.018 with LysK 11.43) and with MRSA USA300 (cleared well: lysostaphin 0.027 with LysK 5.71) were 0.018 µg/mL and 0.027 µg/mL, respectively. The “concentration in combination as % of each agent's MIC” value in the test on MRSA USA300 (second cleared-well condition) is 16% and < 16%. The MIC was 0.096 µg/mL against MRSA strain USA300; 0.097 µg/mL and 0.096 ± 0.018 µg/mL in the test on MRSA strain USA300 (listed as Lysostaphin).
